Earlier results as cited in patent US20060008806A1, “Method for producing novel DNA sequence with biological activity” (University of Washington, priority 1986, published 2006).

System: β-lactamases
Conditions: Labia, et al., 1979

| Structure (SMILES) | Km |
| --- | --- |
| CC1(C)S[C@@H]2[C@H](NC(=O)Cc3ccccc3)C(=O)N2[C@H]1C(=O)O [benzylpenicillin] | 21 µM |
| CC1(C)S[C@@H]2[C@H](NC(=O)C(C(=O)O)c3ccccc3)C(=O)N2[C@H]1C(=O)O (stereo partly drawn) [carbenicillin] | 10 µM |
| CC1(C)S[C@@H]2[C@H](NC(=O)[C@H](N)c3ccccc3)C(=O)N2[C@H]1C(=O)O [ampicillin] | 31 µM |
